Laboratory results taken from the NIST ThermoML archive (doi:10.1021/je034162x).

Details: 101.33 kPa, Liquid, Hot wire method

Cc1cccc(C)c1 [1,3-dimethylbenzene]
Details	thermal conductivity [W/m/K]	thermal diffusivity [m2/s]
258.17 K	0.1393	–
258.42 K	0.1391	–
258.58 K	0.1391	–
259.01 K	–	9.79e-08
259.67 K	–	9.79e-08
260.12 K	–	9.82e-08
275.04 K	0.1353	–
275.28 K	0.1353	–
275.44 K	0.1352	–
275.95 K	–	9.46e-08
276.57 K	–	9.45e-08
277 K	–	9.44e-08
287.36 K	0.1323	–
287.6 K	0.1322	–
287.77 K	0.132	–
288.27 K	–	9.16e-08
288.91 K	–	9.19e-08
289.35 K	–	9.17e-08
294.07 K	0.1305	–
294.32 K	0.1305	–
294.49 K	0.1304	–
294.99 K	–	9.03e-08
295.64 K	–	9.06e-08
296.09 K	–	9.03e-08
311.74 K	0.126	–
312 K	0.1259	–
312.18 K	0.1258	–
312.68 K	–	8.65e-08
313.34 K	–	8.66e-08
313.8 K	–	8.64e-08
328.79 K	0.1218	–
329.04 K	0.1216	–
329.22 K	0.1215	–
329.74 K	–	8.28e-08
330.36 K	–	8.22e-08
330.83 K	–	8.22e-08

C1=CCC=CC1 [1,4-cyclohexadiene]
Details	thermal conductivity [W/m/K]	thermal diffusivity [m2/s]
258.46 K	0.1586	–
258.67 K	0.1584	–
258.82 K	0.1583	–
259.36 K	–	1.06e-07
259.93 K	–	1.05e-07
260.35 K	–	1.05e-07
264.86 K	0.1564	–
265.08 K	0.1563	–
265.23 K	0.1562	–
265.75 K	–	1.04e-07
266.36 K	–	1.04e-07
266.77 K	–	1.04e-07
279.38 K	0.1514	–
279.6 K	0.1512	–
279.76 K	0.1511	–
280.29 K	–	9.95e-08
280.9 K	–	9.93e-08
281.33 K	–	9.92e-08
296.2 K	0.1455	–
296.43 K	0.1453	–
296.6 K	0.1452	–
297.14 K	–	9.5e-08
297.75 K	–	9.45e-08
298.19 K	–	9.45e-08
313.9 K	0.1393	–
314.13 K	0.139	–
314.31 K	0.139	–
314.86 K	–	9.01e-08
315.48 K	–	8.95e-08
315.93 K	–	8.95e-08
328.51 K	0.1343	–
328.75 K	0.1341	–
328.93 K	0.134	–
329.48 K	–	8.61e-08
330.11 K	–	8.57e-08
330.58 K	–	8.57e-08

Cc1ccc(C)cc1 [1,4-dimethylbenzene]
Details	thermal conductivity [W/m/K]	thermal diffusivity [m2/s]
287.33 K	0.1296	–
287.55 K	0.1295	–
287.73 K	0.1294	–
288.19 K	–	8.96e-08
288.74 K	–	8.89e-08
289.19 K	–	8.92e-08
294.03 K	0.1278	–
294.27 K	0.1278	–
294.44 K	0.1277	–
294.86 K	–	8.78e-08
295.48 K	–	8.82e-08
295.9 K	–	8.82e-08
311.71 K	0.1234	–
311.94 K	0.1232	–
312.11 K	0.1231	–
312.56 K	–	8.41e-08
313.14 K	–	8.38e-08
313.56 K	–	8.36e-08
328.75 K	0.1191	–
328.99 K	0.119	–
329.16 K	0.1189	–
329.6 K	–	8.03e-08
330.21 K	–	8.02e-08
330.63 K	–	8.01e-08

C=CCCCCC [1-heptene]
Details	thermal conductivity [W/m/K]	thermal diffusivity [m2/s]
262.46 K	0.1325	–
262.75 K	0.1324	–
262.97 K	0.1324	–
263.83 K	–	9.06e-08
264.74 K	–	9.11e-08
265.37 K	–	9.1e-08
280.48 K	0.1268	–
280.8 K	0.1267	–
281.03 K	0.1264	–
281.93 K	–	8.66e-08
282.87 K	–	8.67e-08
283.53 K	–	8.66e-08
297.36 K	0.1213	–
297.71 K	0.1213	–
297.95 K	0.1212	–
298.89 K	–	8.27e-08
299.87 K	–	8.27e-08
300.55 K	–	8.25e-08
320.47 K	0.1144	–
320.83 K	0.1143	–
321.08 K	0.1142	–
322.07 K	–	7.76e-08
323.1 K	–	7.76e-08
323.81 K	–	7.73e-08

C=CCCC [1-pentene]
Details	thermal conductivity [W/m/K]	thermal diffusivity [m2/s]
257.36 K	0.1284	–
257.67 K	0.1283	–
257.93 K	0.1283	–
258.93 K	–	9.28e-08
259.91 K	–	9.28e-08
260.57 K	–	9.25e-08
276.47 K	0.121	–
276.82 K	0.1209	–
277.07 K	0.1203	–
278.11 K	–	8.65e-08
279.18 K	–	8.7e-08
279.9 K	–	8.66e-08
294.04 K	0.1141	–
294.42 K	0.1139	–
294.66 K	0.1139	–
295.8 K	–	8.2e-08
296.87 K	–	8.16e-08
297.67 K	–	8.16e-08
301.07 K	0.1113	–
301.46 K	0.1112	–
301.75 K	0.1111	–
302.88 K	–	7.99e-08
303.99 K	–	7.96e-08
304.8 K	–	7.96e-08

C=C(C)C(C)C [2,3-dimethyl-1-butene]
Details	thermal conductivity [W/m/K]	thermal diffusivity [m2/s]
258.98 K	0.117	–
259.29 K	0.1169	–
259.4 K	0.1168	–
260.37 K	–	8.17e-08
261.29 K	–	8.19e-08
261.55 K	–	8.16e-08
278.29 K	0.1108	–
278.63 K	0.1106	–
278.87 K	0.1105	–
279.73 K	–	7.65e-08
280.7 K	–	7.67e-08
281.39 K	–	7.68e-08
294.18 K	0.1058	–
294.53 K	0.1056	–
294.78 K	0.1055	–
295.65 K	–	7.3e-08
296.68 K	–	7.29e-08
297.38 K	–	7.28e-08
312.86 K	0.1002	–
313.23 K	0.1	–
313.5 K	0.09991	–
314.43 K	–	6.88e-08
315.45 K	–	6.84e-08
316.18 K	–	6.83e-08
322.51 K	0.0974	–
322.9 K	0.0973	–
323.18 K	0.0972	–
324.07 K	–	6.6e-08
325.17 K	–	6.65e-08
325.9 K	–	6.62e-08
326.52 K	0.09639	–
326.91 K	0.09621	–
327.21 K	0.09612	–
328.13 K	–	6.58e-08
329.22 K	–	6.58e-08
330.05 K	–	6.62e-08
